Source: PubChem BioAssay AID248 (DTP/NCI, 2004)
Toxic doses and inconclusive results are not listed.

Test system: L1210 leukemia ip in BDF1 mice, survival T/C
Assay: NCI In Vivo Anticancer Drug Screen. Data for tumor model L1210 Leukemia (intraperitoneal) in B6D2F1 (BDF1) mice
Details: endpoint: mean survival time, higher = longer survival
Procedure, shortened: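 Ratio derived from survival: compound-dosed mice over vehicle-dosed mice, all bearing a transplantable tumor.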

[1] = dose: 100.0 mg/kg/injection, schedule: Q04DX002 (ip), vehicle: gum acacia
[2] = dose: 200.0 mg/kg/injection, schedule: Q04DX002 (ip), vehicle: gum acacia
[3] = dose: 400.0 mg/kg/injection, schedule: Q04DX002 (ip), vehicle: gum acacia
[4] = dose: 100.0 mg/kg/injection, schedule: Q01DX009 (ip), vehicle: saline
[5] = dose: 100.0 mg/kg/injection, schedule: Q04DX003 (ip), vehicle: saline
[6] = dose: 200.0 mg/kg/injection, schedule: Q01DX009 (ip), vehicle: saline
[7] = dose: 200.0 mg/kg/injection, schedule: Q04DX003 (ip), vehicle: saline
[8] = dose: 400.0 mg/kg/injection, schedule: Q04DX003 (ip), vehicle: saline
[9] = dose: 100.0 mg/kg/injection, schedule: Q04DX003 (ip), vehicle: saline with Tween-80
[10] = dose: 200.0 mg/kg/injection, schedule: Q04DX003 (ip), vehicle: saline with Tween-80
[11] = dose: 400.0 mg/kg/injection, schedule: Q04DX003 (ip), vehicle: saline with Tween-80
[12] = dose: 50.0 mg/kg/injection, schedule: Q01DX009 (ip), vehicle: saline with Tween-80
[13] = dose: 100.0 mg/kg/injection, schedule: Q01DX009 (ip), vehicle: saline with Tween-80
[14] = dose: 200.0 mg/kg/injection, schedule: Q01DX009 (ip), vehicle: saline with Tween-80
[15] = dose: 400.0 mg/kg/injection, schedule: Q01DX009 (ip), vehicle: saline with Tween-80
[16] = dose: 100.0 mg/kg/injection, schedule: Q01DX001 (ip), vehicle: saline
[17] = dose: 200.0 mg/kg/injection, schedule: Q01DX001 (ip), vehicle: saline
[18] = dose: 400.0 mg/kg/injection, schedule: Q01DX001 (ip), vehicle: saline

C/C(=N\N=C(/C)c1ccccc1O)c1ccccc1O was tested, and the T/C [1] was 96 % of control, the T/C [2] was 93 % of control and the T/C [3] was 101 % of control.

CCOC(=O)CCc1ccc(O)c(O)c1 was tested, and the T/C [4] was 100 % of control, the T/C [5] was 92 % of control and the T/C [6] was 102 % of control. For the same compound, the T/C [7] was 111 % of control and the T/C [8] was 101 % of control.

For O=C(O)c1ccccc1C(=O)c1ccccc1C(=O)O, the T/C [9] was 102 % of control, the T/C [10] was 98 % of control and the T/C [11] was 102 % of control.

Nc1ccccc1CCc1ccccc1 was tested, and the T/C (dose: 100.0 mg/kg/injection, schedule: Q04DX002 (ip), vehicle: Klucel (hydroxypropylcellulose) (HPC)) was 103 % of control, the T/C (dose: 200.0 mg/kg/injection, schedule: Q04DX002 (ip), vehicle: Klucel (hydroxypropylcellulose) (HPC)) was 100 % of control and the T/C (dose: 400.0 mg/kg/injection, schedule: Q04DX002 (ip), vehicle: Klucel (hydroxypropylcellulose) (HPC)) was 100 % of control.

With C#CCOP(=O)(OCC)OCC the T/C [4] was 105 % of control and the T/C [6] was 103 % of control.

For O=[N+]([O-])c1ccc(NS(=O)(=O)c2ccc(Cl)c(Cl)c2)cc1, the T/C (dose: 12.5 mg/kg/injection, schedule: Q01DX001 (ip), vehicle: other) was 92 % of control, the T/C (dose: 12.5 mg/kg/injection, schedule: Q01DX009 (ip), vehicle: gum acacia) was 101 % of control and the T/C (dose: 12.5 mg/kg/injection, schedule: Q04DX003 (ip), vehicle: other) was 95 % of control. The T/C (dose: 25.0 mg/kg/injection, schedule: Q01DX001 (ip), vehicle: other) was 97 % of control, the T/C (dose: 25.0 mg/kg/injection, schedule: Q01DX009 (ip), vehicle: gum acacia) was 91 % of control and the T/C (dose: 25.0 mg/kg/injection, schedule: Q04DX003 (ip), vehicle: other) was 94 % of control. For the same compound, the T/C (dose: 50.0 mg/kg/injection, schedule: Q01DX001 (ip), vehicle: other) was 97 % of control and the T/C (dose: 50.0 mg/kg/injection, schedule: Q04DX003 (ip), vehicle: other) was 94 % of control.

With CCOC(=O)C(=N\Nc1ccc(C)c(C)c1)/C(C)=N\NC(N)=S the T/C (dose: 75.0 mg/kg/injection, schedule: Q01DX001 (ip), vehicle: saline) was 87 % of control and the T/C (dose: 150.0 mg/kg/injection, schedule: Q01DX001 (ip), vehicle: saline) was 89 % of control.

COc1ccccc1C1CCCC2C(Oc3ccc([N+](=O)[O-])cc3)OC12 (configuration not stated) was tested, and the T/C [12] was 87 % of control and the T/C [13] was 100 % of control.

For O=CN(c1ccccc1)c1ccccc1, the T/C (dose: 100.0 mg/kg/injection, schedule: Q01DX009 (ip), vehicle: other) was 109 % of control, the T/C [5] was 100 % of control and the T/C (dose: 200.0 mg/kg/injection, schedule: Q01DX009 (ip), vehicle: other) was 106 % of control. The T/C [7] was 102 % of control, the T/C (dose: 400.0 mg/kg/injection, schedule: Q01DX009 (ip), vehicle: other) was 106 % of control and the T/C [8] was 109 % of control.

With COC(=O)CC(O)C(=O)OC (configuration not stated) the T/C [4] was 102 % of control, the T/C [5] was 109 % of control and the T/C [6] was 93 % of control. The T/C [7] was 104 % of control, the T/C (dose: 400.0 mg/kg/injection, schedule: Q01DX009 (ip), vehicle: saline) was 96 % of control and the T/C [8] was 110 % of control.

CCOC(=O)Nc1ccc(NC(C)=O)cc1 was tested, and the T/C (dose: 100.0 mg/kg/injection, schedule: Q01DX009 (ip), vehicle: Klucel (hydroxypropylcellulose) (HPC)) was 104 % of control, the T/C (dose: 200.0 mg/kg/injection, schedule: Q01DX009 (ip), vehicle: Klucel (hydroxypropylcellulose) (HPC)) was 98 % of control and the T/C (dose: 400.0 mg/kg/injection, schedule: Q01DX009 (ip), vehicle: Klucel (hydroxypropylcellulose) (HPC)) was 93 % of control.

In the case of Nc1ncnc(N)c1NC(=O)c1cc(Br)c(OCc2ccccc2)c(Br)c1, the T/C (dose: 100.0 mg/kg/injection, schedule: Q01DX001 (ip), vehicle: DMSO) is reported as 95 % of control, the T/C (dose: 200.0 mg/kg/injection, schedule: Q01DX001 (ip), vehicle: DMSO) is reported as 95 % of control and the T/C (dose: 400.0 mg/kg/injection, schedule: Q01DX001 (ip), vehicle: DMSO) is reported as 95 % of control.

In the case of Cc1c(C(N)=O)sc2ccccc12, the T/C (dose: 100.0 mg/kg/injection, schedule: Q01DX001 (ip), vehicle: carboxymethylcellulose (CMC)) is reported as 89 % of control, the T/C (dose: 200.0 mg/kg/injection, schedule: Q01DX001 (ip), vehicle: carboxymethylcellulose (CMC)) is reported as 107 % of control and the T/C (dose: 400.0 mg/kg/injection, schedule: Q01DX001 (ip), vehicle: carboxymethylcellulose (CMC)) is reported as 94 % of control.

In the case of CCCCCCCCCCCCCCCCCC[N+](CCCC)(CCCC)CCCCCCCCCCCCCCCCCC (tested in a mixture with another compound), the T/C (dose: 100.0 mg/kg/injection, schedule: Q01DX001 (ip), vehicle: other) is reported as 93 % of control and the T/C (dose: 200.0 mg/kg/injection, schedule: Q01DX001 (ip), vehicle: other) is reported as 90 % of control.

With C=CSc1ccccc1 the T/C [13] was 105 % of control and the T/C [14] was 93 % of control.

With CC(=O)n1c2ccccc2c2ccccc21 the T/C [1] was 95 % of control, the T/C [2] was 88 % of control and the T/C [3] was 100 % of control.

In the case of CC(O)CN(CC(C)O)c1ccccc1 (configuration not stated), the T/C [13] is reported as 102 % of control, the T/C [9] is reported as 102 % of control and the T/C [14] is reported as 94 % of control. The T/C [10] was 103 % of control and the T/C [11] was 101 % of control.

CC(C)Oc1ccc2c(c1)Sc1ccc(Cl)cc1N2 was tested, and the T/C [13] was 102 % of control, the T/C [14] was 94 % of control and the T/C [15] was 92 % of control.

In the case of O=C(CCCC(=O)N/N=C/c1ccc2c(c1)CCC2)N/N=C/c1ccc2c(c1)CCC2, the T/C [9] is reported as 95 % of control, the T/C [10] is reported as 97 % of control and the T/C [11] is reported as 90 % of control.

In the case of CCOC1CC2CN(C)C1c1ccccc12 (configuration not stated), the T/C [5] is reported as 97 % of control, the T/C [7] is reported as 97 % of control and the T/C [8] is reported as 101 % of control.

CN(C)P(=O)(N(C)C)N(C)C.[Cl][Al]([Cl])[Cl] was tested, and the T/C (dose: 50.0 mg/kg/injection, schedule: Q01DX009 (ip), vehicle: saline) was 91 % of control, the T/C [4] was 88 % of control and the T/C [6] was 95 % of control.

For C(=C\c1ccccc1)/CN1CCOCC1, the T/C (dose: 25.0 mg/kg/injection, schedule: Q04DX002 (ip), vehicle: saline) was 94 % of control, the T/C (dose: 50.0 mg/kg/injection, schedule: Q04DX002 (ip), vehicle: saline) was 94 % of control and the T/C (dose: 100.0 mg/kg/injection, schedule: Q04DX002 (ip), vehicle: saline) was 105 % of control.

Cc1cc(OS(C)(=O)=O)ccc1OS(C)(=O)=O was tested, and the T/C [13] was 94 % of control, the T/C [9] was 98 % of control and the T/C [14] was 94 % of control. For the same compound, the T/C [10] was 94 % of control, the T/C [15] was 92 % of control and the T/C [11] was 98 % of control.

In the case of CC(=O)NCCCCC(N)C(=O)O (configuration not stated), the T/C (dose: 50.0 mg/kg/injection, schedule: Q01DX001 (ip), vehicle: saline) is reported as 104 % of control, the T/C [16] is reported as 93 % of control and the T/C [17] is reported as 93 % of control. The T/C [18] was 95 % of control.

For N#CCN(CC#N)CCN(CC#N)CCN(CC#N)CC#N, the T/C [16] was 104 % of control, the T/C [17] was 104 % of control and the T/C [18] was 95 % of control.

In the case of CCOC(=O)C(CCSC(C)=O)SC(C)=O (configuration not stated), the T/C (dose: 25.0 mg/kg/injection, schedule: Q01DX009 (ip), vehicle: saline with Tween-80) is reported as 94 % of control, the T/C [12] is reported as 96 % of control and the T/C [13] is reported as 89 % of control. For the same compound, the T/C [9] was 95 % of control and the T/C [10] was 92 % of control.

O=C(Nc1ccc(S(=O)(=O)NC2CCCCC2)cc1)Oc1ccc([N+](=O)[O-])cc1 was tested, and the T/C [16] was 96 % of control, the T/C [17] was 100 % of control and the T/C [18] was 100 % of control.

For CCOC(=O)c1ccc(NCC(=O)CNc2nc(N)nc(N)c2[N+](=O)[O-])cc1, the T/C (dose: 75.0 mg/kg/injection, schedule: Q01DX001 (ip), vehicle: other) was 95 % of control, the T/C (dose: 150.0 mg/kg/injection, schedule: Q01DX001 (ip), vehicle: other) was 90 % of control and the T/C (dose: 300.0 mg/kg/injection, schedule: Q01DX001 (ip), vehicle: other) was 87 % of control.

With CC1(C)c2ccc([nH]2)C(C)(C)c2ccc([nH]2)C(C)(C)c2c[nH]cc2C(C)(C)c2ccc1[nH]2 the T/C [16] was 102 % of control, the T/C [17] was 94 % of control and the T/C [18] was 97 % of control.

In the case of O=C(OCC1OC(n2cnc3c(=S)nc[nH]c32)C(OC(=O)c2ccc(Cl)cc2)C1OC(=O)c1ccc(Cl)cc1)c1ccc(Cl)cc1 (configuration not stated), the T/C [16] is reported as 104 % of control, the T/C [4] is reported as 122 % of control and the T/C [17] is reported as 101 % of control. For the same compound, the T/C [18] was 113 % of control and the T/C (dose: 800.0 mg/kg/injection, schedule: Q01DX009 (ip), vehicle: saline) was 166 % of control.

With C#CC[N+]1=CN(c2ccc(C)cc2)Cc2cc(C)ccc21 the T/C [12] was 89 % of control, the T/C [13] was 93 % of control and the T/C [9] was 110 % of control. The T/C [10] was 98 % of control.
